{"source": "patent US11382898B2", "about": "“BAX activators and uses thereof in cancer therapy” (Albert Einstein College of Medicine, priority 2017, dated 2022)", "key": {"OCI-AML3 leukemia cells": {"system": "OCI-AML3 leukemia cells", "assay": "Synergistic cytotoxicity with BCL-2 inhibitors in OCI-AML3 leukemia cells", "assay_type": "cell-based, human", "conditions": "for pIC50: Homo sapiens, OCI-AML-3, 24 h, 24 h treatment; for synergy with ABT-199 (venetoclax) / synergy with ABT-263 (navitoclax): non-cytotoxic doses, 24 h", "experimental": "Viability assays were performed in at least triplicate and the data normalized to vehicle-treated control wells. IC50 values were determined by nonlinear regression analysis using Prism software (Graphpad)."}, "THP-1 and OCI-AML3 cells": {"system": "THP-1 and OCI-AML3 cells", "assay": "Viability assay of AML cells treated with venetoclax or BTSA1 alone or in combination", "assay_type": "cell-based, human", "conditions": "BTSA1 at ~EC10 dose, 24 hrs", "source_text": "Moreover, the synergistic effect of these two drugs is observed within hours, consistent with their kinetics of mitochondrial apoptosis activation."}, "BCL-XL": {"target": "T1, BCL-XL (Homo sapiens, UniProt Q07817)", "T1 construct": "BCL-XLΔC, MCL-1ΔNΔC, BFL-1/A1ΔC: 200 nM; made in house; host or cells: Escherichia coli", "T1 sequence (Q07817 1-212 limits assumed)": "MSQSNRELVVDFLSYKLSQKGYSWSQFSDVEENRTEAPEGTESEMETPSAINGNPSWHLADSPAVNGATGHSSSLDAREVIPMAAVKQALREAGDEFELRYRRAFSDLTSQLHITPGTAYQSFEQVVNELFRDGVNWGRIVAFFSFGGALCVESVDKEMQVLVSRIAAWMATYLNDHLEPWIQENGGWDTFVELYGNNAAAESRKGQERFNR", "assay": "Competitive fluorescence polarization assay, FITC-BIM SAHBA2 bound to BCL-XL", "assay_type": "binding", "conditions": "BTSA1 at 50 μM", "procedure": "(§1) Fluorescence polarization assays (FPA) were performed as previously described (Gavathiotis et al., 2012). Firstly, direct binding isotherms were generated by incubating FITC-BIM SAHBA2 (50 nM) with serial dilutions of full-length BAX, BCL-XLΔC, MCL-1ΔNΔC, BFL-1/A1ΔC and fluorescence polarization was measured at 20 minutes on a F200 PRO microplate reader (TECAN). Subsequently, in competition assays, a serial dilution of small molecule or acetylated BIM SAHBA2 (Ac-BIM SAHB) was combined with FITC-BIM SAHBA2 (50 nM), followed by the addition of recombinant protein at ˜EC75 concentration, as determined by the direct binding assay (BAX: 500 nM; BCL-XLΔC, MCL-1ΔNΔC, BFL-1/A1ΔC: 200 nM).\n(§2) A competitive fluorescence polarization assay that evaluates the capacity of compounds to compete a fluorescein-labeled stapled peptide of the BIM BH3 helix, FITC-BIM SAHBA2, from the BAX trigger site, was used to determine the binding potency (Gavathiotis et al., 2008; Gavathiotis et al., 2012)."}, "MCL-1": {"system": "MCL-1", "assay": "Competitive fluorescence polarization assay, FITC-BIM SAHBA2 bound to MCL-1", "assay_type": "binding, Human", "conditions": "BTSA1 at 50 μM", "procedure": "as §1, §2"}, "BAX [1]": {"target": "T2, BAX (Homo sapiens, UniProt Q07812)", "T2 construct": "with serial dilutions of full-length BAX, BCL-XLΔC, MCL-1ΔNΔC, BFL-1/A1ΔC; made in house; host or cells: Escherichia coli", "T2 sequence (Q07812 whole entry)": "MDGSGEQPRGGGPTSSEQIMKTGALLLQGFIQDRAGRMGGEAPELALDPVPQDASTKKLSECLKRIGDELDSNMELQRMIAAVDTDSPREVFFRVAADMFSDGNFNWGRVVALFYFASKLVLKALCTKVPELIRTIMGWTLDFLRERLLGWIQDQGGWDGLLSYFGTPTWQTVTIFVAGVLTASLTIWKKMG", "assay": "Competitive fluorescence polarization assay, FITC-BIM SAHBA2 from the BAX trigger site", "assay_type": "binding", "conditions": "for pIC50: FITC-BIM SAHBA2 50 nM, BAX 500 nM, read-out: IC50, competition of FITC-BIM SAHBA2 from BAX", "procedure": "as §1, §2"}, "BFL-1/A1": {"system": "BFL-1/A1", "assay": "Competitive fluorescence polarization assay, FITC-BIM SAHBA2 bound to BFL-1/A1", "assay_type": "binding, Human", "conditions": "BTSA1 at 50 μM", "procedure": "as §1, §2"}, "[2]": {"system": "anti-apoptotic BCL-2 family proteins (BCL-2, BCL-XL, MCL-1)", "assay": "Pull down assay with biotinylated BTSA1, anti-apoptotic BCL-2 family proteins", "assay_type": "binding, human", "procedure": "OCI-AML3, MEFs and HPB-ALL cytosolic and mitochondrial lysates were generated by Dounce Homogenization. Cells were lysed by Dounce homogenizer in lysis buffer (LB) containing 10 mM Tris, pH 7.5, 1 mM EGTA, 200 mM sucrose plus Complete Protease Inhibitors. The cell lysates were centrifuged at 700×g for 10 min to remove unbroken cells and nuclei. The supernatants were centrifuged at 12000× g for 10 min at 4° C. and the resulting pellet was collected as the mitochondrial fraction and supernatant as the cytosolic fraction. The mitochondrial fraction was resuspended in LB+1% CHAPS to solubilize proteins. […] Biotin capture was achieved by incubation with high capacity streptavidin agarose (50 μL 50% slurry/reaction—Pierce) for 1 hour at room temperature. The streptavidin beads were washed (3×) at room temperature with 1×PBS. Cellular BAX bound to the biotinylated-BTSA1 was eluted by boiling for 20 minutes in LDS buffer and then subjected to BAX (2772S, Cell Signaling), BCL-2 (BD Biosciences Cat. 610539), BCL-XL (Cell Signaling Cat. 2764) and MCL-1 (Cell Signaling Cat. 4572) western blot analysis."}, "BAX [3]": {"target": "T2, BAX", "assay": "Direct fluorescence polarization binding of fluorescein-labeled BTSA1 to BAX", "conditions": "fluorescein-labeled compound"}}, "note": "pEC50, pIC50: −log10 of the molar value. Positions of bridges follow the written chain, without caps; N, C: chain ends. Non-standard residues stand in square brackets, D forms with d. Residues, ends and D or L forms follow the SMILES beside them. S5 = C=CCCC[C@](C)(N)C(=O)O"}
{"compound": "CC1(C)CCC(CN2CCN(c3ccc(C(=O)NS(=O)(=O)c4ccc(NCC5CCOCC5)c([N+](=O)[O-])c4)c(Oc4cnc5[nH]ccc5c4)c3)CC2)=C(c2ccc(Cl)cc2)C1", "note": "[ABT-199, 4-(4-{[2-(4-Chlorophenyl)-4,4-dimethyl-1-cyclohexen-1-yl]methyl}-1-piperazinyl)-N-({3-nitro-4-[(tetrahydro-2H-pyran-4-ylmethyl)amino]phenyl}sulfonyl)-2-(1H-pyrrolo[2,3-b]pyridin-5-yloxy)benzamide]", "values": [{"measurement": "pIC50", "setting": "OCI-AML3 leukemia cells; BAX activator concentration 0.625 μM", "value": 5.41}, {"measurement": "pIC50", "setting": "OCI-AML3 leukemia cells; BAX activator concentration 1.25 μM", "value": 5.32}, {"measurement": "pIC50", "setting": "OCI-AML3 leukemia cells; BAX activator concentration […]", "value": 5.44}, {"measurement": "EC50 of venetoclax in combination with BTSA1", "setting": "THP-1 and OCI-AML3 cells", "value": "low nM concentration"}]}
{"compound": "CC[C@H](C)[C@H](NC(=O)[C@H](Cc1c[nH]c2ccccc12)NC(=O)[C@@H](NC(=O)[C@H](CCC(=O)O)NC(C)=O)[C@@H](C)CC)C(=O)N[C@@H](C)C(=O)N[C@@H](CCC(N)=O)C(=O)N[C@@H](CCC(=O)O)C(=O)N[C@@H](CC(C)C)C(=O)N[C@@H](CCCNC(=N)N)C(=O)N[C@@]1(C)CCCC=CCCC[C@@](C)(C(=O)N[C@@H](Cc2ccccc2)C(=O)N[C@@H](CC(N)=O)C(=O)N[C@@H](C)C(=O)N[C@@H](Cc2ccc(O)cc2)C(=O)N[C@@H](Cc2ccc(O)cc2)C(=O)N[C@@H](C)C(N)=O)NC(=O)[C@H](CC(=O)O)NC(=O)CNC(=O)[C@H]([C@@H](C)CC)NC1=O", "note": "[BIM SAHBA2] (Ac-EIWIAQELR[S5]IGD[S5]FNAYYA-NH2; staple 10-14)", "values": [{"measurement": "capacity to compete FITC-BIM SAHBA2 from BCL-XL", "setting": "BCL-XL", "value": "effectively competed"}, {"measurement": "capacity to compete FITC-BIM SAHBA2 from MCL-1", "setting": "MCL-1", "value": "effectively competed"}, {"measurement": "pIC50", "setting": "BAX [1]", "value": 6.55}, {"measurement": "capacity to compete FITC-BIM SAHBA2 from BFL-1/A1", "setting": "BFL-1/A1", "value": "effectively competed"}]}
{"compound": "CC1=NN(c2nc(-c3ccccc3)cs2)C(=O)C1=NNc1nccs1", "note": "[BTSA2]", "values": [{"measurement": "reduction in binding capacity to BAX relative to BTSA1", "setting": "BAX [1]", "value": "~10", "unit": "fold"}, {"measurement": "pIC50", "setting": "BAX [1]", "value": 5.43}]}
{"compound": "Cc1nc(N/N=C2\\C(=O)N(c3nc(-c4ccccc4)cs3)N=C2c2ccccc2)sc1C", "note": "[GAV2-006]", "values": [{"measurement": "synergy with ABT-199 (venetoclax)", "setting": "OCI-AML3 leukemia cells", "value": "significant synergistic cytotoxicity"}, {"measurement": "synergy with ABT-263 (navitoclax)", "setting": "OCI-AML3 leukemia cells", "value": "significant synergistic cytotoxicity"}]}
{"compound": "O=C1/C(=N\\Nc2nccs2)C(c2ccccc2)=NN1c1nc(-c2ccc(F)cc2)cs1", "note": "[GAV2-008]", "values": [{"measurement": "synergy with ABT-199 (venetoclax)", "setting": "OCI-AML3 leukemia cells", "value": "significant synergistic cytotoxicity"}, {"measurement": "synergy with ABT-263 (navitoclax)", "setting": "OCI-AML3 leukemia cells", "value": "significant synergistic cytotoxicity"}]}
{"compound": "COc1ccc(C2=NN(c3nc(-c4ccccc4)cs3)C(=O)/C2=N\\Nc2nccs2)cc1", "note": "[GAV2-010]", "values": [{"measurement": "synergy with ABT-199 (venetoclax)", "setting": "OCI-AML3 leukemia cells", "value": "significant synergistic cytotoxicity"}]}
{"compound": "O=C(CCCC[C@H]1SCC2NC(=O)NC21)NCCCOCCOCCOCCCNC(=O)c1ccc(-c2csc(N3N=C(c4ccccc4)C(=NNc4nccs4)C3=O)n2)cc1", "note": "(stereo partly drawn) [biotinylated BTSA1, N-(15-oxo-19-((4R)-2-oxohexahydro-1H-thieno[3,4-d]imidazol-4-yl)-4,7,10-trioxa-14-azanonadecyl)-4-(2-(5-oxo-3-phenyl-4-(2-(thiazol-2-yl)hydrazono)-4,5-dihydro-1Hpyrazol-1-yl)thiazol-4-yl)benzamide]", "values": [{"measurement": "pull down of anti-apoptotic BCL-2 family proteins", "setting": "[2]", "value": "failed to pull down"}, {"measurement": "reduction in binding capacity to BAX relative to BTSA1", "setting": "BAX [1]", "value": "ten-fold"}, {"measurement": "pIC50", "setting": "BAX [1]", "value": 5.70}]}
{"compound": "O=C(NCCCOCCOCCOCCCNC(=S)Nc1ccc2c(c1)C(=O)OC21c2ccc(O)cc2Oc2cc(O)ccc21)c1ccc(-c2csc(N3N=C(c4ccccc4)C(=NNc4nccs4)C3=O)n2)cc1", "note": "[fluorescein-labeled BTSA1, N-(1-((3′,6′-dihydroxy-3-oxo-3H-spiro[isobenzofuran-1,9′-xanthen]-5-yl)amino)-1-thioxo-6,9,12-trioxa-2-azapentadecan-15-yl)-4-(2-(5-oxo-3-phenyl-4-(2-(thiazol-2-yl)hydrazineylidene)-4,5-dihydro-1H-pyrazol-1-yl)thiazol-4-yl)-benzamide]", "values": [{"measurement": "pEC50", "setting": "BAX [3]", "value": 6.84}]}
